Converted amounts (≈) assume the structure as drawn. “Also recorded” adds a separate entry of the source.
Assays:
CLP-induced mice = test: Survival rate in CLP-induced mouse model; conditions: for survival rate / survival rate, in words: CLP mice; for survival rate: intraperitoneally, daily dose of 10 mg/kg for 21 days, start 1 hour before induction; for survival rate, in words: 10 mg/kg ip daily for 21 days, compared with vehicle and 1d groups
Source text: Briefly, the CLP mouse model is established by performing a surgical procedure to the cecum, which is the organ where the resident enteric microbiome exists. Ligating the cecum and puncturing the end with a needle causes endotoxemia by inducing polymicrobial contamination in the abdominal cavity toward the circulatory system.

[1] = test system: MAPK including p38, JNK, and ERK; test: Western blot of MAPK phosphorylation; format: cell-based; conditions: Raw264.7 cells
Procedure: (§1) Western Blot Analysis Protein sampling was done in 4° C. Cells were harvested in RIPA lysis buffer containing protease inhibitor cocktail and phosphatase inhibitor.
(§2) After centrifugation at 15000 rpm for 20 minutes, supernatant was transferred to new 1.5 mL tube. Protein concentration was normalized with a Micro BCA protein assay kit. The protein samples were analyzed with the Western blot procedure. Protein was transferred into PVDF membrane after SDS-PAGE. Membrane was blocked after transfer step, with 2% BSA in TBST for 1 hour in room temperature.
(§3) Primary antibodies were treated overnight at 4° C. or 1 hour in room temperature, followed by washing with TBST.
(§4) HRP-conjugated secondary antibodies were treated for 1 hour in room temperature. Antibodies were diluted in 1% BSA in TBST solution, with the concentration indicated in antibody manufacturer's protocol. After washing with TBST, the membrane was developed by Amersham ECL prime solution. Chemiluminescent signal was measured by ChemiDoc MP imaging system, and relative quantification were followed using ImageLab 4.0 software. The quantification result was processed with GraphPad Prism 5.0 software.

[2] = Liver microsomal stability, mouse; format: in vitro ADME; conditions: for microsomal stability Mouse(%): mouse liver microsomal
Source text: (§5) The aqueous solubility, liver microsomal stabilities and PK profiles was measure for Compounds 1d, 2j, and 2l in the in vivo CLP-induced mouse models.

Raw 264.7 cell = test: WST (water-soluble tetrazolium) analysis, relative cell viability; format: cell-based; conditions: 100 ng/mL LPS and compounds 24 hours
Procedure: Relative cell viability of Compound 2a to 2o prepared in Examples 2 was measured by WST (water-soluble tetrazolium) analysis.
Raw 264.7 cell was seeded in transparent 96-well plate and maintained for 1 day.
Media was aspirated, and each well was washed with serum free DMEM for twice. Each well was refilled with serum-free DMEM. Then, 100 ng/mL LPS and compounds were treated afterward and cultured for 24 hours. After the incubation, the supernatant culture media was transferred to new 96-well plate.
Immediately after transferring media, cell-seeded wells were refilled with 100 μL of 10% FBS and 1% antibiotic-antimycotic containing DMEM. Then, 10 μL of Ez-cytox WST assay reagent was used to treat each well, following the manufacturer's protocol.
After incubating for 20 min in a 5% CO2 incubator at 37° C. with humidified atmosphere, absorbance was read at 450 nm.
Blank values were obtained from the well only treated with 10% FBS and 1% antibiotic-antimycotic containing DMEM.

PK profiles in mouse = format: in vivo; conditions: ip injection
Source text: as §5

NF-κB p65 = NF-κB p65 immunofluorescence (migration to the nucleus); format: cell-based; conditions: Raw264.7 cells, 500 ng/mL LPS
Source text: It is concluded that Compounds 1d, 2j, and 2l controlled and regulated the inflammatory signaling pathways in activated macrophages.

[3] = Liver microsomal stability, human; format: in vitro ADME; conditions: for microsomal stability Human(%): human liver microsomal
Source text: as §5

[4] = test system: TNF-α secretion in Raw264.7 cell; test: ELISA of secreted TNF-α; format: cell-based; conditions: Mus musculus, LPS 100 ng/mL, compounds 10 μM, read-out: TNF-α Inhibition Rate (%)
Procedure: Thus, in order to additionally confirm the inflammation inhibitory effects of Compounds 2f to 2l, the inhibition rate of TNF-α secretion was quantitatively measured by ELISA.
Cells were treated with each Compound 1d, or 2f to 2l, and LPS for 24 hours, followed by ELISA for TNF-α present in the culture solution.
In order to measure the amount of secreted TNF-α, Raw264.7 cell was seeded in transparent 96-well plate and maintained for 1 day. Media was aspirated after 1 day and replaced to serum-free DMEM with 1% (v/v) antibiotic-antimycotic solution. LPS and compounds were treated in a final concentration of 100 ng/mL and 10 μM.
Standard curve was plotted by the dose-dependent treatment of the control TNF-α protein provided with the ELISA kit. Blank value was measured by adding solutions without TNF-α substrate.
The TNF-α secretion inhibition rate of Compounds 1d, and 2f to 2l was confirmed, when compared with control groups.

[5] = test system: IL-6 secreted from Raw 264.7 cells; test: Western blot analysis of IL-6 secretion; format: cell-based; conditions: pretreatment with compounds
Procedure: From the results shown in Table 6, Compounds 2j (68%) and 2l (60%) had better TNF-α release inhibitory effect than that of Compound 1d (43%). Therefore, the inhibitory effect of IL-6 release secretion was analyzed with the Western blot analysis in order to additionally confirm the inflammation inhibitory effect of Compounds 2j and 2l.
as §1, §2, §3, §4

HMGB1 = test: Immunofluorescence of cellular localization of HMGB1 upon LPS treatment; format: cell-based; conditions: Raw264.7 cell, 20 μM compounds 1 hour prior to 500 ng/mL LPS for 2 hours
Procedure: From the results shown in Table 6, Compounds 2j (68%) and 2l (60%) had better TNF-α release inhibitory effect than that of Compound 1d (43%). Therefore, it was analyzed with the immunofluorescence whether Compounds 2j and 2l may inhibit the cellular localization of HMGB1 upon LPS treatment.
Raw264.7 cell was seeded in “Nunc Lab-Tek II” chambered coverglass and maintained for 1 day.
Then, 20 μM of compounds were treated 1 hour prior to 500 ng/mL LPS treatment for 2 hours.
After aspirating the media and washing with PBS, 200 μl of 4% paraformaldehyde solution was treated and incubated at room temperature for 20 minutes. Then, 4% paraformaldehyde solution was aspirated and the sample was washed with PBS three times.
For the permeabilization to enable antibody binding, 200 μL of methanol was treated and incubated at −20° C. for 20 minutes. Methanol was then removed and the sample was washed with PBS three times.
Sample was blocked with 2% BSA in PBS solution at room temperature for 1 hour. Then, 2% BSA in PBS solution was removed and primary antibody containing 1% BSA in PBS was treated at 4° C. overnight. Antibody concentration was optimized according to the manufacturer's protocol. Primary antibody solution was removed and the sample was washed with PBS three times. Secondary antibody containing 1% BSA in PBS solution was treated at room temperature for 1 hour.
The secondary antibody used was goat anti rabbit TRITC labeled antibody from Abcam.
After 1 hour, antibody solution was aspirated and the sample was washed with PBS three times. For nucleus staining, Hoechst 33342 was diluted in PBS, and each well was treated and incubated at room temperature for 1 hour. Hoechst 33342 was then removed and the chamber was filled with PBS, continued for imaging using DeltaVision microscope.

IL-6 = IL-6 level in CLP-induced mice (ELISA); conditions: CLP mouse model, daily dose of 10 mg/kg for 9 days starting 1 hour before CLP induction
Procedure: After 4 hours, media were transferred to new transparent 96-well plate and diluted with 1% BSA in PBS solution. ELISA assay was performed following the manufacturer's protocol.
ELISA plates (Costar, Cambridge, Mass.) were coated overnight with anti-IL-6 monoclonal antibody (eBioscience, San Diego, Calif.) at 4° C. Wells were blocked with PBS containing 1% bovine serum albumin (Sigma-Aldrich, St. Louis, Mo.) for 1 hour at room temperature (RT) and incubated with serum overnight at 4° C.
After washing, plates were incubated with biotinylated anti-IL-6 antibody (eBioscience) for 1 hour at RT. Streptavidin-conjugated horseradish peroxidase (eBioscience) is attached for 1 hour at RT. Then, Color was developed using TMB solution (eBioscience),
Absorbance was read at 450 nm with a Multiskan Ascent (Labsystems, Kennett Square, Pa.). All experiments were independently performed at least three times.

[6] = test system: NO release in Raw264.7 cells; test: Griess assay, inhibition of nitric oxide release; format: cell-based; conditions: 100 ng/mL LPS and compounds 24 hours, compared with control group
Procedure: Thus, the Griess assay was used to measure nitric oxide secretion for inflammation inhibition in Raw264.7 cells.
Raw 264.7 macrophage cell was cultured in Dulbecco Modified Eagle Medium (DMEM) with 10% (v/v) fetal bovine serum (FBS) and 1% (v/v) antibiotic-anti mycotic solution.
Cell was maintained in a 100 mm cell culture dish under cell culture conditions (5% CO2 incubator at 37° C. with humidified atmosphere).
Griess assay reagent was generated prior to the assay with the following contents listed below: N-(1-naphthyl) ethylenediamine dihydrochloride, 0.1% (m/v); sulfanilamide, 1% (m/v); phosphoric acid (85%); 5% (v/v) in deionized water.
Raw 264.7 cell was seeded in transparent 96-well plate and maintained for 1 day. Media was aspirated, and each well was washed with serum free DMEM for twice. Each well was refilled with serum-free DMEM.
Then 100 ng/mL LPS and compounds were treated afterward and cultured for 24 hours. After the incubation, the supernatant culture media was transferred to new 96-well plate and mixed with 50 μL of Griess assay reagent.
Media-reagent mixture was incubated at room temperature for several minutes. Absorbance was read at 548 nm. Four wells each were used for the control experiment, LPS and DMSO (without any compounds) treated well, and DMSO-only treated well. Blank values were measured.
Blank values were measured by mixing 50 μL of Griess assay reagent with […] and 1% antibiotic-antimycotic containing DMEM.
As for the compounds in which the double bond of the tetrahydropyridazine ring in Compound 1d is moved or eliminated, the inhibition rate of NO release was measured in the same manner as in Test Example 2.
The inhibition rate of NO release for Compounds 2a to 2o prepared in Example 2 was tested in order to confirm the anti-inflammatory effect for the above compounds.

Aqueous solubility = format: physicochemical
Source text: as §5

| Structure (SMILES) | survival rate (CLP-induced mice) | phosphorylation of MAPK including p38, JNK, and ERK [1] | microsomal stability Mouse(%) [2] | Relative Cell Viability (%) (Raw 264.7 cell) | PK data AUC (PK profiles in mouse) | PK data Cmax (PK profiles in mouse) | PK data T1/2 (PK profiles in mouse) | PK data Tmax (PK profiles in mouse) | migration of NF-κB to the nucleus (NF-κB p65) | microsomal stability Human(%) [3] | inhibition at 10 µM [4] | level of IL-6 secreted (western blot) [5] | translocation of HMGB1 from the nucleus to the cytosol (HMGB1) | NO Inhibition rate (%) [6] | survival rate, in words (CLP-induced mice) | liver microsomal stability in mice, in words, compared with Compound 1d [2] | liver microsomal stability in humans, in words, compared with Compound 1d [3] | solubility in aqueous media, in words, compared with Compound 1d (Aqueous solubility) | further results |
| --- | --- | --- | --- | --- | --- | --- | --- | --- | --- | --- | --- | --- | --- | --- | --- | --- | --- | --- | --- |
| CC1(C)Oc2cc(O)ccc2C2C1=CCn1c(=O)n(-c3ccccc3)c(=O)n12 (centres unmarked) [Compound 1d, inflachromene] | about 45% | clearly inhibited the phosphorylation of MAPK including p38, JNK, and ERK | 0.41 ± 0.10% | 105% | 327 ± 68.7 µg·h/mL | 387 ± 122 µg/mL | 3.87 ± 0.84 h | 0.14 ± 0.10 h | inhibit the migration of NF-κB to the nucleus | 0.82 ± 0.29% | 43% | significantly reduced | inhibited the translocation of HMGB1 from the nucleus to the cytosol | 87% |  |  |  |  | survival rate, in words, compared with vehicle-treated group (CLP-induced mice; CLP-induced mice, ip 10 mg/kg for 9 days): significantly increased; IL-6 levels in surviving mice, compared with control group (IL-6): significantly reduced |
| CC(=O)c1ccc(-n2c(=O)n3n(c2=O)C2C(=CC3)C(C)(C)Oc3cc(O)ccc32)cc1 (centres unmarked) [Compound 2j] | 74% | clearly inhibited the phosphorylation of MAPK including p38, JNK, and ERK | 2.46 ± 1.83% | 111% | 202 ± 28.1 µg·h/mL | 100 ± 3.72 µg/mL | 3.45 ± 1.00 h | 0.25 ± 0.00 h | inhibit the migration of NF-κB to the nucleus | 30.2 ± 2.81% | 68% | superior inhibitory effect on IL-6 secretion; also recorded: improved the inhibition of IL-6 release | inhibited the translocation of HMGB1 from the nucleus to the cytosol | 93% | superior effects on survival rates | improved liver microsomal stability | improved liver microsomal stability | improved solubility in aqueous media | solubility (Aqueous solubility; aqueous media): 162 ± 2.12 µg/mL (≈ 387 µM) |
| COc1cc(OC)cc(-n2c(=O)n3n(c2=O)C2C(=CC3)C(C)(C)Oc3cc(O)ccc32)c1 (centres unmarked) [Compound 2l] | 54% | clearly inhibited the phosphorylation of MAPK including p38, JNK, and ERK | 20.2 ± 1.78% | 121% | 218 ± 51.8 µg·h/mL | 282 ± 87.0 µg/mL | 5.00 ± 0.98 h | 0.14 ± 0.10 h | inhibit the migration of NF-κB to the nucleus | 41.2 ± 4.33% | 60% | superior inhibitory effect on IL-6 secretion; also recorded: improved the inhibition of IL-6 release | inhibited the translocation of HMGB1 from the nucleus to the cytosol | 94% | superior effects on survival rates | improved liver microsomal stability | improved liver microsomal stability | improved solubility in aqueous media |  |

Reference: patent US10160766B1, “Benzopyranyl tetracycle compound and pharmaceutical composition having excellent anti-inflammatory effect comprising the same” (Spark Biopharma, Inc., priority 2017, dated 2018)
